For one test, the system named is rat model of stroke. Particulars: vs control rats; cited from earlier work.
The test system of another test is SH-SY5Y cells. In words: Neurite outgrowth (differentiation) in SH-SY5Y cells, Tubulin Tracker imaging. Type of test: cell-based, human. On the procedure:
Transferrin is utilized in cell culture and in-vivo to deliver iron as a nutrient to cells. This is typically accomplished through the actions of holo-transferrin (HoloTf) binding to, and endocytosis by, its cognate receptor CD71, the transferrin receptor 1 (TfR1). Transferrin is typically believed to provide cells with iron as a means to promote and sustain metabolic activity. […] Induction of neuronal differentiation was assessed by morphological parameters of neurite formation (a key element typically used as a marker of neuronal differentiation, neuronal health, and function) according to the procedures of Agholme, 2010. J. of Alzheimer's Disease. Vol. 20:1p 069-108; and Dyberg et al., 2017. PNAS Vol 114 (32), E6603-E6612.
Undifferentiated SH-SY5Y cells were seeded into 96 well clear bottom plates in media containing 0.1% FBS. A serum-free base media was utilized as recommended by the supplier for SH-SY5Y cells (Sigma, Cat #94030304-1VL). Twenty-four hours after seeding cells, a 3× stock solution of ApoTf, final concentrations indicated on the x-axis, in serum free base media was added to the cells. ApoTf was obtained and purified from pooled human plasma and dosed at a final concentration of 0.2 mg/mL.
Cells were allowed to differentiate for 6 days. Neurite growth was assessed by imaging and image analysis. At the time of analysis, a 10× solution of Tubulin Tracker (Molecular Probes, T34075) and Hoechst 33342 (Molecular Probes #H3570) nuclear stain was prepared.
Briefly, Tubulin Tracker dissolved in DMSO was diluted 1:1 with Pluronic F-127 and further diluted into HBSS to generate a 10× solution. Hoechst 33342 was added to the HBSS-Tubulin Tracker solution at 10 μg/mL to generate a 10× nuclear stain. The 10× staining solution (10 μL) was added directly to treated assay wells and incubated at 37° C. for 30 minutes. Following incubation, 110 μL of 0.4% Trypan Blue was added directly to assay wells and imaged on a Molecular Devices Nano imaging instrument. Nine images/well were acquired in the blue (Nuclei) and green (Tubulin) fluorescent channels for each image.
After obtaining images, the MetaExpress Neurite Outgrowth analysis module (Molecular Devices) was used to identify cells, cell bodies, and quantify neurites. The total number of neurite branches were divided by the total number of cells imaged to account for different numbers of cells in each test well. The Outgrowth Fold Change was determined by setting the untreated control cells to a value of 1 with all other treatments shown relative to untreated control.
Undifferentiated SH-SY5Y cells were seeded and treated as described in Example 1. Neurite growth was assessed by imaging and image analysis. At the time of analysis, a 10× solution of Tubulin Tracker (Molecular Probes, T34075) and Hoechst 33342 (Molecular Probes #H3570) nuclear stain was prepared. Briefly, Tubulin Tracker dissolved in DMSO was diluted 1:1 with Pluronic F-127 and further diluted into HBSS to generate a 10× solution. Hoechst 33342 was added to the HBSS-Tubulin Tracker solution at 10 μg/mL to generate at 10× nuclear stain. The 10× staining solution (10 μL) was added directly to treated assay wells and incubated at 37° C. for 30 minutes. Following incubation, 110 μL of 0.4% Trypan Blue was added directly to assay wells and imaged on a Molecular Devices Nano imaging instrument. Nine images/well were acquired in the blue (Nuclei) and green (Tubulin) fluorescent channels for each image. After obtaining images, the MetaExpress Neurite Outgrowth analysis module (Molecular Devices) was used to identify cell bodies and quantify neurites. The total number of neurite branches were divided by the total number of cells imaged to account for different numbers of cells. The Outgrowth Fold Change was determined by setting the untreated control to a value of 1 with all other treatments shown relative to untreated control. ApoTf was obtained and purified from pooled human plasma and dosed at a final concentration of 0.2 mg/mL. […]

Test [1] concerns C57BL/6J mice with transient MCAo. In words: Neuroscore recovery after transient MCAo. Type of test: in vivo, mouse. To be noted: FIG. 10A, 3-14 days after MCAo, vs saline. The method, then:
(§1) C57BL/6J mice (ca. 20 g) were anaesthetized under isoflurane and, after dissection, a 6.0 silicon-coated monofilament suture was inserted into the external carotid artery to occlude the middle cerebral artery (MCAo). The occlusion was carried out for 60 minutes under temperature control.
(§2) Only animals with a ‘neuroscore’ of 4 or greater were considered for further testing (n=8-10 animals/group). At six hours post-occlusion, mice were injected daily with 350 mg/kg of Apo-transferrin (i.p.) or an equal volume of saline for a total of seven days, as well as with 50 mg/kg Bromodeoxyuridine (BrdU; Sigma-Aldrich Chemical, St. Louis, Mo.), both articles delivered by intraperitoneal administration. Weight changes were monitored daily.
Mice were prepared as indicated in Example 9 above and were subjected to assessments at 3 days and 1, 2, 3, 4 weeks post-MCAo, as indicated (n=8-10 animals/group). Motor coordination (i.e. equilibrium behavior and locomotor ability as a function of cortico-striatal function) was assessed using a rotarod test. Learning and memory capacity were measured using the NORT (novel object recognition test; for example, Anglada-Huguet et al., 2014, Molecular Neurobiology, vol. 49, pages 784-795; Denninger et al., 2018, J. Vis. Exp., vol. 141, e58593). […]

Test [2] shares this test system. Description: Neurogenesis in dentate gyrus of mice after transient MCAo (BrdU/DCX, BrdU/NeuN immunohistochemistry). Type of test: in vivo, mouse. Particulars: 350 mg/kg i.p. daily 7 days, vs saline; for number of new neuroblasts (BrdU+/DCX+ cells): FIG. 9A, two-week period; for number of newly formed mature neurons (BrdU+/NeuN+ cells): FIG. 9B, after 4 weeks. The method, then:
as §1, §2
At the times indicated in Example 9, brains were prepared for analysis by transcardial perfusion with ice cold heparinized saline (heparin at 2.5 IU/ml) in order to remove blood from the brains. Fresh brains were removed leaving the right cerebellum attached to whole left-brain hemisphere to help orientate the brain block in sectioning. The whole left hemisphere block was placed in 4% paraformaldehyde in 0.1 M phosphate buffer (PB) for 24 hours at +4° C., then cryoprotected in 30% sucrose in 0.1 M PB for 2-3 days on a shaker at +4° C. The brain was then blotted to remove excess liquid, placed on top of a vial cork and frozen on top of liquid nitrogen; the block was then stored at −80° C. until cryostat sections are obtained. Neurogenesis was evaluated by immunohistochemistry using antibodies against BrdU and Doublecortin (DCX) to quantify new neuroblasts or against BrdU and NeuN to quantify new neurons in the dentate gyrus of the brain.

For the substance “apo-transferrin: iron-free form of transferrin protein, obtained and purified from pooled human plasma”, in the test on rat model of stroke, the “volume of the infarcted area (neuroprotective effect)” value is “decrease in the volume of the infarcted area”. Further, the “neurite outgrowth (Outgrowth Fold Change)” value with SH-SY5Y cells (FIG. 1A, dose response up to 0.8 mg/mL, 6 days) is listed as “able to induce neurite outgrowth in a dose dependent manner”. Also, in the test on SH-SY5Y cells (FIG. 1C, 0.1 mg/mL), the “neurite/tubulin outgrowth, visual comparison to untreated control” value was “promoting induction of neurite/tubulin outgrowth”. In the test with SH-SY5Y cells (FIG. 3A, DFO versus ApoTf), the “neurite outgrowth / differentiation versus concentration” value is recorded as “continues to increase differentiation even up to 9.9 μM”. In addition, in the test with SH-SY5Y cells (FIG. 3B, proteins at 0.2 mg/mL), the “neurogenesis (neurite outgrowth) of SH-SY5Y” value was “did induce neurogenesis”. The “neurogenic effect, ApoTf in combination with Y-27632” value in the test with SH-SY5Y cells (FIG. 8, ApoTf 0.1 mg/mL plus Y-27632 50 μM) is recorded as “the neurogenic effect was synergistic”. Also, the “differentiation / neurite outgrowth, combination with neurotrophic factors” value in the test on SH-SY5Y cells (FIGS. 7A-7D, ApoTf 0.1 mg/mL plus factor) is “synergistic effect”. For the same substance, the figures for the “rate of recovery (percentage of animals with neuroscore 0)” value in test [1] and in test [1] (listed as ApoTf) were “quicker recovery” and “significantly improves the rate at which the animals recover”, respectively. The “number of new neuroblasts (BrdU+/DCX+ cells)” value is listed as “increases the amount of neurogenesis” in test [2] and “increases the number of neuroblasts” in test [2] (listed as ApoTf). Further, the entries for the “number of newly formed mature neurons (BrdU+/NeuN+ cells)” value in test [2] and in test [2] (listed as ApoTf) were “increases the amount of neurogenesis” and “number of newly formed mature neurons are higher”, respectively.

Values taken from patent publication US20230265167A1, “COMPOSITIONS HAVING NEUROREGENERATIVE APPLICATIONS” (GRIFOLS WORLDWIDE OPERATIONS LIMITED, priority 2020, published 2023).
